Here are results for two compounds from BindingDB's records for doi:10.1021/bi200855m (Whitman College, 2011).

In this assay the target is T1, 2,6-dichloro-p-hydroquinone 1,2-dioxygenase (Sphingobium chlorophenolicum, UniProt Q9ZBB0).
T1 sequence (Q9ZBB0 whole entry): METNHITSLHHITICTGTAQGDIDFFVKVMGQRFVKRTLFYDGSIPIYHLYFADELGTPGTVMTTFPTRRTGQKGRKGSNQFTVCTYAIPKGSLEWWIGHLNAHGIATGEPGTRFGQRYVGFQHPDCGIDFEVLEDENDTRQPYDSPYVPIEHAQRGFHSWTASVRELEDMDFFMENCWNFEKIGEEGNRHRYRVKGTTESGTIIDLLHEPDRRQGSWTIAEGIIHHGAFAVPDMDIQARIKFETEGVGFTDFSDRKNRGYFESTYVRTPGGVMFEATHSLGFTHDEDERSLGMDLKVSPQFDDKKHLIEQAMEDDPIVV
As to the kind of experiment: Inhibition Assay. As for the experimental part:
The rate of the enzymatic reaction was determined by measuring product formation by a spectrophotometric assay developed by Xun and co-worker with modification. The assay was performed on a Cary 50 Bio or Cary 5000 UV-visible spectrophotometer (Varian).

Compound `Oc1c(Br)cccc1Br` registered a Ki of 13 µM. This counts as double-digit micromolar. `Oc1c(Cl)cccc1Cl` [2,6-Dichlorophenol] gave a Ki of 48 µM.
